Laboratory results as given in ChEMBL document CHEMBL4346657, “Anticancer activity, dual prooxidant/antioxidant effect and apoptosis induction profile of new bichalcophene-5-carboxamidines” (Eur J Med Chem, 2019).
Activity calls are given as the source filed them. The calls are words filed in the database; no cut-off is given here.

Experiments:
[1] = system: Panel NCI-60 (60 carcinoma cell lines); test: Antiproliferative activity against human NCI60 cells assessed as growth inhibition after 48 hrs by sulforhodamine B assay; assay type: functional
[2] = Selectivity index, ratio of IC50 for human WI38 cells to GI50 for human NCI60 cells
MDA-MB-231 = test: Antiproliferative activity against human MDA-MB-231/ATCC cells assessed as growth inhibition after 48 hrs by sulforhodamine B assay; assay type: functional; conditions: MDA-MB-231, 48 h
MCF7 = test: Antiproliferative activity against human MCF7 cells assessed as growth inhibition after 48 hrs by sulforhodamine B assay; assay type: functional; conditions: MCF7, 48 h
[3] = system: Panel NCI-60 (60 carcinoma cell lines); test: Antiproliferative activity against human NCI60 cells assessed as growth inhibition at 10 uM after 48 hrs by sulforhodamine B assay; assay type: functional; conditions: read-out: GI
DU-145 = test: Antiproliferative activity against human DU145 cells assessed as growth inhibition after 48 hrs by sulforhodamine B assay; assay type: functional; conditions: DU-145, 48 h
SN12C = test: Antiproliferative activity against human SN12C cells assessed as growth inhibition after 48 hrs by sulforhodamine B assay; assay type: functional
ACHN = test: Antiproliferative activity against human ACHN cells assessed as growth inhibition after 48 hrs by sulforhodamine B assay; assay type: functional
786-0 = test: Antiproliferative activity against human 786-0 cells assessed as growth inhibition after 48 hrs by sulforhodamine B assay; assay type: functional; conditions: 786-0, 48 h
SK-OV-3 = test: Antiproliferative activity against human SKOV3 cells assessed as growth inhibition after 48 hrs by sulforhodamine B assay; assay type: functional; conditions: SK-OV-3, 48 h
OVCAR-5 = test: Antiproliferative activity against human OVCAR5 cells assessed as growth inhibition after 48 hrs by sulforhodamine B assay; assay type: functional; conditions: OVCAR-5, 48 h
IGROV-1 = test: Antiproliferative activity against human IGROV1 cells assessed as growth inhibition after 48 hrs by sulforhodamine B assay; assay type: functional; conditions: IGROV-1, 48 h
UACC-62 = test: Antiproliferative activity against human UACC62 cells assessed as growth inhibition after 48 hrs by sulforhodamine B assay; assay type: functional; conditions: UACC-62, 48 h
SK-MEL-5 = test: Antiproliferative activity against human SK-MEL-5 cells assessed as growth inhibition after 48 hrs by sulforhodamine B assay; assay type: functional; conditions: SK-MEL-5, 48 h
SK-MEL-28 = test: Antiproliferative activity against human SK-MEL-28 cells assessed as growth inhibition after 48 hrs by sulforhodamine B assay; assay type: functional; conditions: SK-MEL-28, 48 h
SK-MEL-2 = test: Antiproliferative activity against human SK-MEL-2 cells assessed as growth inhibition after 48 hrs by sulforhodamine B assay; assay type: functional; conditions: SK-MEL-2, 48 h
MDA-MB-435 = test: Antiproliferative activity against human MDA-MB-435 cells assessed as growth inhibition after 48 hrs by sulforhodamine B assay; assay type: functional; conditions: MDA-MB-435, 48 h
M14 = test: Antiproliferative activity against human M14 cells assessed as growth inhibition after 48 hrs by sulforhodamine B assay; assay type: functional; conditions: M14, 48 h
Malme-3M = test: Antiproliferative activity against human MALME-3M cells assessed as growth inhibition after 48 hrs by sulforhodamine B assay; assay type: functional
SNB-19 = test: Antiproliferative activity against human SNB19 cells assessed as growth inhibition after 48 hrs by sulforhodamine B assay; assay type: functional; conditions: SNB-19, 48 h
SF-295 = test: Antiproliferative activity against human SF295 cells assessed as growth inhibition after 48 hrs by sulforhodamine B assay; assay type: functional; conditions: SF-295, 48 h
SF-268 = test: Antiproliferative activity against human SF268 cells assessed as growth inhibition after 48 hrs by sulforhodamine B assay; assay type: functional; conditions: SF-268, 48 h
SW-620 = test: Antiproliferative activity against human SW620 cells assessed as growth inhibition after 48 hrs by sulforhodamine B assay; assay type: functional; conditions: SW-620, 48 h
HCT-116 [4] = test: Antiproliferative activity against human HCT116 cells assessed as growth inhibition after 48 hrs by sulforhodamine B assay; assay type: functional; conditions: HCT-116, 48 h
COLO 205 = test: Antiproliferative activity against human COLO205 cells assessed as growth inhibition after 48 hrs by sulforhodamine B assay; assay type: functional; conditions: COLO 205, 48 h
NCI-H522 = test: Antiproliferative activity against human NCI-H522 cells assessed as growth inhibition after 48 hrs by sulforhodamine B assay; assay type: functional; conditions: NCI-H522, 48 h
NCI-H460 = test: Antiproliferative activity against human NCI-H460 cells assessed as growth inhibition after 48 hrs by sulforhodamine B assay; assay type: functional; conditions: NCI-H460, 48 h
NCI-H322M = test: Antiproliferative activity against human NCI-H322M cells assessed as growth inhibition after 48 hrs by sulforhodamine B assay; assay type: functional
NCI-H226 = test: Antiproliferative activity against human NCI-H226 cells assessed as growth inhibition after 48 hrs by sulforhodamine B assay; assay type: functional; conditions: NCI-H226, 48 h
EKVX = test: Antiproliferative activity against human EKVX cells assessed as growth inhibition after 48 hrs by sulforhodamine B assay; assay type: functional
RPMI-8226 = test: Antiproliferative activity against human RPMI8226 cells assessed as growth inhibition after 48 hrs by sulforhodamine B assay; assay type: functional; conditions: RPMI-8226, 48 h
HL-60(TB) = test: Antiproliferative activity against human HL-60(TB) cells assessed as growth inhibition after 48 hrs by sulforhodamine B assay; assay type: functional; conditions: HL-60, 48 h
CCRF-CEM = test: Antiproliferative activity against human CCRF-CEM cells assessed as growth inhibition after 48 hrs by sulforhodamine B assay; assay type: functional
[5] = Haemolytic activity in human erythrocytes assessed as induction of hemolysis at 10 mM after 30 mins relative to H202; assay type: cell-based, Erythrocyte; conditions: read-out: Activity
[6] = Haemolytic activity in human erythrocytes assessed as induction of hemolysis at 5 mM after 30 mins relative to H202; assay type: cell-based, Erythrocyte; conditions: read-out: Activity
[7] = Antioxidant activity assessed as ABTS radical scavenging activity by spectrophotometric analysis relative to control; assay type: functional; set-up: concentration or dose not given beside the values; conditions: dose or concentration not given here
[8] = Antioxidant activity assessed as ABTS radical scavenging activity by spectrophotometric method relative to ascorbic acid; assay type: functional
[9] = Antioxidant activity assessed as hydroxyl radical scavenging activity after 1 hr by salicylic acid-based Fenton reaction assay; assay type: functional
[10] = Pro-oxidant activity assessed as increase in bleomycin-Fe2+ induced calf thymus DNA damage at 2 mM after 1 hr by thiobarbituric acid based absorbance analysis
HCT-116 [11] = test: Induction of apoptosis in human HCT116 cells assessed as increase in caspase 9 mRNA expression at 100 nM after 6 hrs hrs by SYBR green dye-based qRT-PCR analysis relative to control; assay type: functional
HCT-116 [12] = test: Induction of apoptosis in human HCT116 cells assessed as increase in p53 mRNA expression at 100 nM after 6 hrs hrs by SYBR green dye-based qRT-PCR analysis relative to control; assay type: functional
HCT-116 [13] = test: […] in CDK1 mRNA expression in human HCT116 cells at 100 nM after 6 hrs hrs by SYBR green dye-based qRT-PCR analysis relative to control; assay type: functional

N=C(N)c1ccc(-c2ccc(-c3ccccc3)o2)o1
GI50 [1]: 2.4 µM | LC50 [1]: 22.4 µM | TGI [1]: 6.91 µM | Selectivity Index [2]: 28.6 | GI50 (MDA-MB-231): 2.04 µM | GI50 (MCF7): 1.68 µM | inhibition of growth at 10 µM [3]: 68.2% | GI50 (DU-145): 3.3 µM | GI50 (SN12C): 3.12 µM | GI50 (ACHN): 2.56 µM | GI50 (786-0): 1.74 µM | GI50 (SK-OV-3): 4.3 µM | GI50 (OVCAR-5): 2.7 µM | GI50 (IGROV-1): 2.89 µM | GI50 (UACC-62): 1.93 µM | GI50 (SK-MEL-5): 1.75 µM | GI50 (SK-MEL-28): 1.9 µM | GI50 (SK-MEL-2): 2.25 µM | GI50 (MDA-MB-435): 0.99 µM | GI50 (M14): 1.62 µM | GI50 (Malme-3M): 1.75 µM | GI50 (SNB-19): 3.01 µM | GI50 (SF-295): 1.81 µM | GI50 (SF-268): 2.98 µM | GI50 (SW-620): 1.79 µM | GI50 (HCT-116 [4]): 2.07 µM | GI50 (COLO 205): 1.78 µM | GI50 (NCI-H522): 1.94 µM | GI50 (NCI-H460): 2.45 µM | GI50 (NCI-H322M): 2.12 µM | GI50 (NCI-H226): 5.7 µM | GI50 (EKVX): 2.34 µM | GI50 (RPMI-8226): 2.89 µM | GI50 (HL-60(TB)): 2.18 µM | GI50 (CCRF-CEM): 3.58 µM | hemolysis at 0.5 h, 10000 µM [5]: 66.7% | hemolysis at 0.5 h, 5000 µM [6]: 30.1% | inhibition [7]: 41.3% | fold change (FC) [8]: 0.4 | Activity [9]: Active | Activity [10]: Active | fold change (FC) (HCT-116 [11]): 2.28 | fold change (FC) (HCT-116 [12]): 0.95 | fold change (FC) (HCT-116 [13]): 0.97
